Source: US20040076974A1, “Liver necrosis predictive genes” (priority 2002, published 2004)
Where “and” joins values, the source holds several entries; their conditions need not be identical. Equal values may be shown once. Read-outs that look alike come from different tables or passages of the source.

Key:
Sprague Dawley rats = settings: rat, in vivo; for Score (histopathology liver necrosis severity score): Sprague Dawley, 72 h; for Score (histopathology liver necrosis severity score) / Liver Necrosis: ip
Procedure: Sprague Dawley rats Crl:CD from Charles River, Raleigh, N.C. were divided into treated rats that receive a specific concentration of the compound (see Table 1) and. control rats that only received the vehicle in which the compound is mixed (e.g., saline).
At specified timepoints (6 h, 24 h and 72 h) after administration (intraperitoneal route) of the compound, a set number of rats (usually 3 control and 3 treated) were euthanized and tissues collected. Each, rat was heavily sedated with an overdose of CO2 by inhalation and a maximum amount of blood drawn. Exsanguination of the rat by this drawing of blood kills the rat. The method of collecting the tissues is very important and ensures preserving the quality of the mRNA in the tissues. The body of the rat was then opened up and prosectors rapidly removed the tissues (including) and immediately placed them into liquid nitrogen. […] The organs/tissues were then packaged into well-labeled plastic freezer quality bags and stored at −80 degrees until needed for isolation of the mRNA from a portion of the organ/tissue sample.
Histopathology scores for each animal (assigned on a compound-dose basis as indicated in Table 1) were entered with gene expression data by using the GeneSpring™ ‘Drawn Gene’ function. Correlations between the histopathology scores and gene expression were conducted with the distance measures listed below:
Toxicity classifications were entered for training and test set as a parameter column. Toxicity, as defined by observation of necrosis in the at 72 hours after treatment, was entered as a “yes” or “no” for each animal in a compound-dose group. Additionally, a parameter column for random histopathology classification was designated. This was done by randomly assigning the same number of “yes” and “no” calls to the individual animals.

[1] = system: toxicologically relevant rat genes (rat CT array); settings: rat, in vivo

C[C@@H]1C[C@H]2[C@@H]3CCC4=CC(=O)C=C[C@]4(C)[C@@]3(F)[C@@H](O)C[C@]2(C)[C@@]1(O)C(=O)CO [dexamethasone]
Score (histopathology liver necrosis severity score) (Sprague Dawley rats; 8 mg/kg): 1 | Score (histopathology liver necrosis severity score) (Sprague Dawley rats; 30 mg/kg): 1 | Liver Toxicity Necrosis Classification (Sprague Dawley rats): no | Liver Necrosis (Sprague Dawley rats; 8 mg/kg): no | Liver Necrosis (Sprague Dawley rats; 30 mg/kg): no | 60S ribosomal protein L6 expression [1]: 0.8901 and 1.098 (2×) and 0.9353 | Adenine nucleotide translocator 1 expression [1]: 0.9053 and 1.087 and 0.9653 and 0.9797 | Alpha-2-macroglobulin, sequence 2 expression [1]: 0.8488 and 1.069 and 0.9789 and 0.9595 | Alpha-2-microglobulin expression [1]: 0.9657 and 0.9413 | Alpha-tubulin expression [1]: 0.8272 and 1.251 and 0.9313 and 1.093 | Apolipoprotein All expression [1]: 0.7858 and 0.4198 and 0.803 and 0.4911 | Beta-tubulin, class I expression [1]: 0.8776 and 1.559 and 0.9809 and 1.151 | Calpactin I heavy chain expression [1]: 1.271 and 1.029 | Cofilin expression [1]: 1.006 and 0.9999 | Collagen type II expression [1]: 0.9739 and 1.08 and 1.31 | Cystatin C expression [1]: 0.8226 and 0.8364 and 1.078 | Cytochrome P450 2C11 expression [1]: 1.275 | Dynamin-1 (D100) expression [1]: 1.017 and 1.094 and 0.908 and 0.9644 | Elongation factor-1 alpha expression [1]: 0.8912 and 1.18 and 1.019 | F1-ATPase beta subunit expression [1]: 0.9797 and 1.576 and 1.032 and 1.236 | Gamma-actin, cytoplasmic expression [1]: 0.9178 and 0.883 and 0.9507 | Glutathione S-transferase theta-1 expression [1]: 0.9901 and 0.9291 and 0.9991 and 0.8886 | Glycine methyltransferase expression [1]: 1.124 and 1.982 and 1.013 and 1.714 | Heme oxygenase expression [1]: 0.8094 and 0.8311 and 0.7467 | High affinity IgE receptor gamma chain (FcERIgamma) expression [1]: 0.9808 and 0.8055 and 0.8812 and 0.8054 | IgE binding protein expression [1]: 1.039 and 0.992 and 1.096 | Insulin-like growth factor I, exon 6 expression [1]: 0.8498 and 0.631 and 1.058 and 0.6827 | Melanoma-associated antigen ME491 expression [1]: 1.042 and 1.057 and 0.9592 and 0.993 | NADP-dependent isocitrate dehydrogenase, cytosolic expression [1]: 0.9222 and 0.7332 and 0.8853 and 0.7428 | NIPK expression [1]: 0.9259 and 0.8897 and 0.7728 | Osteoactivin expression [1]: 0.8926 and 1.029 and 0.8681 | Phase-1 RCT-39 expression [1]: 0.9168 | Phase-1 RCT-57 expression [1]: 0.9696 | Phase-1 RCT-78 expression [1]: 0.8839 | Phase-1 RCT-81 expression [1]: 0.9341 | Phase-1 RCT-107 expression [1]: 1.099 and 1.846 and 1.664 | Phase-1 RCT-138 expression [1]: 0.9192 and 0.9399 and 0.9819 | Phase-1 RCT-146 expression [1]: 0.9664 | Phase-1 RCT-149 expression [1]: 0.7735 | Phase-1 RCT-164 expression [1]: 0.8597 and 0.7256 and 0.7203 | Phase-1 RCT-179 expression [1]: 0.9599 and 0.8496 | Phase-1 RCT-192 expression [1]: 0.9855 | Phase-1 RCT-295 expression [1]: 0.9503 | Stathmin expression [1]: 1.058 and 1.063 | Uncoupling protein 2 expression [1]: 0.8754 and 1.097 and 0.9302 | alpha-1,2-fucosyltrans-ferase expression [1]: 0.8942 and 0.8707 and 0.7596
